pIC50: −log10 of the molar value.
System: LPS-induced TNF-α release (THP1 cells)
Assay: Inhibition of LPS-induced TNF-α release from THP1 cells (ELISA)
Type: cell-based
Settings: Homo sapiens, THP-1, LPS 2 mg/ml, 3 hours at 37° C., TNF-α by ELISA, read-out: IC50 (concentration giving 50% inhibition of LPS-induced TNF-α release)
Description: THP1 cells were cultivated in RPMI 1640 medium supplemented with antibiotics and 10% foetal calf serum, harvested by centrifugation and diluted to 5×10^5 cells/ml in the above medium supplemented with 20 mM HEPES buffer. Aliquots ([…]) of the cell suspension were plated out on 96 well culture plates and incubated for 0.5 hour at 37° C. prior to the addition of the test compounds. The latter were dissolved in dimethyl sulphoxide (DMSO) to a stock concentration of 1.2 mM which was diluted with phosphate buffered saline/10% DMSO solution to provide test compounds in final concentrations of 10^-9 to 10^-5 M, with each concentration being tested in duplicate. The cells were incubated with the test compounds for 0.5 hour at 37° C., LPS (bacterial lipopolysaccharide) was then added to a concentration of 2 mg/ml and incubation was continued for 3 hours at 37° C. in an atmosphere containing 5% CO2 and at 95% relative humidity. After centrifugation at 260 g for 10 minutes an aliquot of each supernatant was removed and the amount of TNF-α was estimated by ELISA (R & D Systems Europe Ltd., Abingdon, England). The concentration of test compound which brings about 50% inhibition of LPS-induced TNF-α release (IC50) was computed from the dose-response curve.
The results obtained in the foregoing test with representative compounds of formula I are compiled in the following Table.

| pIC50 | Structure (SMILES) |
| --- | --- |
| 6.23 | CC(C)C[C@@H](C(=O)NN(CC(C)C)C(=O)C(C)O)[C@H](C/C=C/c1ccccc1)C(=O)NO (mixture of isomers) [B, (E)-2(R)-[1(S)-(Hydroxycarbamoyl)-4-phenyl-3-butenyl]-2'-(2(RS)-hydroxypropionyl)-2'-isobutyl-4-methylvalerohydrazide] |
| 6.52 | CC(C)C[C@@H](C(=O)NN(CC(C)C)C(=O)[C@@H](C)N)[C@H](C/C=C/c1ccccc1)C(=O)NO [A, (E)-2'-(D-Alanyl)-2(R)-[1(S)-(hydroxycarbamoyl)-4-phenyl-3-butenyl]-2'-isobutyl-4-methylvalerohydrazide] |
| 6.70 | CC(C)C[C@@H](C(=O)NN(CC(C)C)C(=O)Cn1ccnc1)[C@H](C/C=C/c1ccccc1)C(=O)NO [C, (E)-2(R)-[1(S)-(Hydroxycarbamoyl)-4-phenyl-3-butenyl]-2'-[2-(1-imidazolyl)acetyl]-2'-isobutyl-4-methylvalerohydrazide] |
| 6.46 | CC(C)C[C@@H](C(=O)NN(CC(C)C)C(=O)C1CCNCC1)[C@H](C/C=C/c1ccccc1)C(=O)NO [D, (E)-2(R)-[1(S)-(Hydroxycarbamoyl)-4-phenyl-3-butenyl]-2'-isobutyl-4-methyl-2'-[(4-piperidinyl)carbonyl]valerohydrazide] |
